According to US6706664B1, “Benzoxazole compounds, process for the preparation thereof and herbicides” (UBE Industries, Ltd., priority 1999, dated 2004):

Legend:
Set-up in all cases: key: 0: normal development; 1: Less damaged; 2: Slightly damaged; 3: Moderately damaged; 4: Severely damaged; 5: All killed
[1] = tested on: young rice plant; assay: Herbicidal test for paddy field; assay type: in vivo; details: paddy field pot, 500 g/ha dropwise at 1.5 leaf stage of barnyardgrass, 3 weeks, rank vs non-treated
Procedure: (§1) Wagner pots, each having an area of 1/5000 are, were packed with Ube soil (alluvial soil) and planted with seeds or tubers of young rice plant, barnyardgrass, bulrush, flat sedge and monochoria. Then, the pots were filled with water to a depth of 3 cm.
(§2) Each wettable powder of the desired compounds (I) shown in Table 1 prepared in accordance with Example 2 was diluted with water containing a surfactant (0.05%) and subjected to dropwise addition treatment by using pipet so that an effective concentration of the compound (I) in each herbicide became 500 g/ha at 1.5 leaf stage of barnyardgrass.
(§3) These plants were controlled in a glass house at an average temperature of 25° C. for 3 weeks, and then herbicidal effects thereof were investigated.
(§4) The herbicidal effects are evaluated according to the following 6 ranks as compared with non-treated district.
(§5) (0: normal development, 1: Less damaged, 2: Slightly damaged, 3: Moderately damaged, 4: Severely damaged, 5: All killed).

[2] = tested on: barnyardgrass; assay: Herbicidal test for paddy field; assay type: in vivo, Echinochloa crusgalli; details: paddy field pot, 500 g/ha dropwise at 1.5 leaf stage of barnyardgrass, 3 weeks, rank vs non-treated
Procedure: as §1, §2, §3, §4, §5

[3] = tested on: bulrush; assay: Herbicidal test for paddy field; assay type: in vivo, Scrips juncoides; details: paddy field pot, 500 g/ha dropwise at 1.5 leaf stage of barnyardgrass, 3 weeks, rank vs non-treated
Procedure: as §1, §2, §3, §4, §5

[4] = tested on: monochoria; assay: Herbicidal test for paddy field; assay type: in vivo, Monochoria vaginalis; details: paddy field pot, 500 g/ha dropwise at 1.5 leaf stage of barnyardgrass, 3 weeks, rank vs non-treated
Procedure: as §1, §2, §3, §4, §5

[5] = tested on: corn; assay: Soil treatment test for upland field; assay type: in vivo; details: 500 g/ha, glass house 25° C., 3 weeks
Text: as §5
(§6) Wagner pots, each having an area of 1/5000 are, were packed with Ube soil (alluvial soil), and then each seed of corn, soybean, cotton, wheat, solgum, sugar beat, Large crabgrass, barnyardgrass, green foxtail, blackgrass, annual bluegrass, common lambsquartes, livid amaranth and velvetleaf were planted and covered with soil.
(§7) Each wettable powder of the desired compounds (I) shown in Table 1 prepared in accordance with Example 2 was diluted with water containing a surfactant (0.05%) and uniformly sprayed on the surface of each soil so that an effective concentration of the compound (I) in each herbicide became 500 g/ha. These plants were controlled in a glass house at an average temperature of 25° C. for 3 weeks, and then herbicidal effects thereof were investigated.
(§8) The herbicidal effects were evaluated according to the evaluation method described in the above (1).

[6] = tested on: cotton; assay: Soil treatment test for upland field; assay type: in vivo; details: 500 g/ha, glass house 25° C., 3 weeks
Text: as §5, §6, §7, §8

[7] = tested on: solgum; assay: Soil treatment test for upland field; assay type: in vivo; details: 500 g/ha, glass house 25° C., 3 weeks
Text: as §5, §6, §7, §8

[8] = tested on: soybean; assay: Soil treatment test for upland field; assay type: in vivo; details: 500 g/ha, glass house 25° C., 3 weeks
Text: as §5, §6, §7, §8

[9] = tested on: sugar beat; assay: Soil treatment test for upland field; assay type: in vivo; details: 500 g/ha, glass house 25° C., 3 weeks
Text: as §5, §6, §7, §8

[10] = tested on: wheat; assay: Soil treatment test for upland field; assay type: in vivo; details: 500 g/ha, glass house 25° C., 3 weeks
Text: as §5, §6, §7, §8

[11] = tested on: Large crabgrass; assay: Soil treatment test for upland field; assay type: in vivo, Digitaria adscendens; details: 500 g/ha, glass house 25° C., 3 weeks
Text: as §5, §6, §7, §8

[12] = tested on: barnyardgrass; assay: Soil treatment test for upland field; assay type: in vivo, Echinochloa crusgalli; details: 500 g/ha, glass house 25° C., 3 weeks
Text: as §5, §6, §7, §8

[13] = tested on: green foxtail; assay: Soil treatment test for upland field; assay type: in vivo, Setaria viridis; details: 500 g/ha, glass house 25° C., 3 weeks
Text: as §5, §6, §7, §8

[14] = tested on: annual bluegrass; assay: Soil treatment test for upland field; assay type: in vivo, Poa annua; details: 500 g/ha, glass house 25° C., 3 weeks
Text: as §5, §6, §7, §8

[15] = tested on: common lambsquartes; assay: Soil treatment test for upland field; assay type: in vivo, Chenopodium album; details: 500 g/ha, glass house 25° C., 3 weeks
Text: as §5, §6, §7, §8

[16] = tested on: livid amaranth; assay: Soil treatment test for upland field; assay type: in vivo, Amaranthus lividus; details: 500 g/ha, glass house 25° C., 3 weeks
Text: as §5, §6, §7, §8

[17] = tested on: velvetleaf; assay: Soil treatment test for upland field; assay type: in vivo, Abutilon theophrasti; details: 500 g/ha, glass house 25° C., 3 weeks
Text: as §5, §6, §7, §8

[18] = tested on: blackgrass; assay: Soil treatment test for upland field; assay type: in vivo, Alopecurus aegualis; details: 500 g/ha, glass house 25° C., 3 weeks
Text: as §5, §6, §7, §8

[19] = tested on: corn; assay: Foliar spread test for upland field; assay type: in vivo; details: foliar spray 500 ppm, 3 weeks, rank vs non-treated
Text: as §5
(§9) Wagner pots, each having an area of 1/5000 are, were packed with volcanic ash soil and then each seed of corn, soybean, cotton, wheat, solgum, sugar beat, Large crabgrass, barnyardgrass, green foxtail, blackgrass, annual bluegrass, common lambsquartes, livid amaranth, velvetleaf and morning glory was planted, covered with soil and grown in a glass house at an average temperature of […] for about 2 weeks.
(§10) Each wettable powder of the desired compounds (I) shown in Table 1 prepared in accordance with Example 2 was diluted to 500 ppm with water containing a surfactant (0.5%) and then uniformly sprayed on the above respective plants.
(§11) After these plants were controlled in a glass house at an average temperature of 25° C. for 3 weeks, the herbicidal effects thereof were investigated.
as §8

[20] = tested on: solgum; assay: Foliar spread test for upland field; assay type: in vivo; details: foliar spray 500 ppm, 3 weeks, rank vs non-treated
Text: as §5, §9, §10, §11, §8

[21] = tested on: sugar beat; assay: Foliar spread test for upland field; assay type: in vivo; details: foliar spray 500 ppm, 3 weeks, rank vs non-treated
Text: as §5, §9, §10, §11, §8

[22] = tested on: wheat; assay: Foliar spread test for upland field; assay type: in vivo; details: foliar spray 500 ppm, 3 weeks, rank vs non-treated
Text: as §5, §9, §10, §11, §8

[23] = tested on: green foxtail; assay: Foliar spread test for upland field; assay type: in vivo, Setaria viridis; details: foliar spray 500 ppm, 3 weeks, rank vs non-treated
Text: as §5, §9, §10, §11, §8

[24] = tested on: livid amaranth; assay: Foliar spread test for upland field; assay type: in vivo, Amaranthus lividus; details: foliar spray 500 ppm, 3 weeks, rank vs non-treated
Text: as §5, §9, §10, §11, §8

[25] = tested on: velvetleaf; assay: Foliar spread test for upland field; assay type: in vivo, Abutilon theophrasti; details: foliar spray 500 ppm, 3 weeks, rank vs non-treated
Text: as §5, §9, §10, §11, §8

## CCC(Oc1ccc(F)c(C(F)(F)F)c1)c1nc2ccc(F)cc2o1 (centres unmarked) [Compound 27]
[1]
  Effect Young rice plant: 0
[2]
  Effect Barnyardgrass: 1
[3]
  Effect Bulrush: 4
[4]
  Effect Monochoria: 5
[5]
  Effects Corn: 0
[6]
  Effects Cotton: 0
[7]
  Effects Solgum: 0
[8]
  Effects Soybean: 0
[9]
  Effects Sugar beat: 1
[10]
  Effects Wheat: 0
[11]
  Effects Large crabgrass: 4
[12]
  Effects Barnyardgrass: 1
[13]
  Effects Green foxtail: 4
[14]
  Effects Annual bluegrass: 3
[15]
  Effects Common lambsquarters: 3
[16]
  Effects Livid amaranth: 5
[17]
  Effects Velvetleaf: 1

## CCC(Oc1ccc(F)c(C(F)(F)F)c1)c1nc2ccc(Cl)cc2o1 (centres unmarked) [Compound 9]
[1]
  Effect Young rice plant: 0
[2]
  Effect Barnyardgrass: 3
[3]
  Effect Bulrush: 3
[4]
  Effect Monochoria: 4
[5]
  Effects Corn: 0
[6]
  Effects Cotton: 0
[7]
  Effects Solgum: 0
[8]
  Effects Soybean: 0
[9]
  Effects Sugar beat: 2
[10]
  Effects Wheat: 0
[11]
  Effects Large crabgrass: 5
[12]
  Effects Barnyardgrass: 4
[13]
  Effects Green foxtail: 5
[18]
  Effects Blackgrass: 3
[14]
  Effects Annual bluegrass: 4
[15]
  Effects Common lambsquarters: 3
[16]
  Effects Livid amaranth: 5

## CCCC(Oc1cccc(C#N)c1)c1nc2cc(S(C)(=O)=O)c(C)cc2o1 (centres unmarked) [Compound 492]
[1]
  Effect Young rice plant: 0
[2]
  Effect Barnyardgrass: 2
[3]
  Effect Bulrush: 3
[4]
  Effect Monochoria: 5
[19]
  Effects Corn: 1
[20]
  Effects Solgum: 1
[21]
  Effects Sugar beat: 4
[22]
  Effects Wheat: 1
[23]
  Effects Green foxtail: 2
[24]
  Effects Livid amaranth: 4
[25]
  Effects Velvetleaf: 3

## CCC(Oc1cccc(C(F)(F)F)c1)c1nc2ccc(Cl)cc2o1 (centres unmarked) [Compound 10]
[1]
  Effect Young rice plant: 0
[2]
  Effect Barnyardgrass: 4
[3]
  Effect Bulrush: 3
[4]
  Effect Monochoria: 1
[5]
  Effects Corn: 0
[6]
  Effects Cotton: 0
[7]
  Effects Solgum: 0
[8]
  Effects Soybean: 0
[9]
  Effects Sugar beat: 0
[10]
  Effects Wheat: 0
[11]
  Effects Large crabgrass: 5
[12]
  Effects Barnyardgrass: 2
[13]
  Effects Green foxtail: 4
[18]
  Effects Blackgrass: 2
[14]
  Effects Annual bluegrass: 4
[15]
  Effects Common lambsquarters: 2
[16]
  Effects Livid amaranth: 4

## CCC(Oc1ccc(F)c(C(F)(F)F)c1)c1nc2cc(C#N)c(Cl)cc2o1 (centres unmarked) [Compound 517]
[1]
  Effect Young rice plant: 2
[2]
  Effect Barnyardgrass: 3
[3]
  Effect Bulrush: 3
[4]
  Effect Monochoria: 3
[5]
  Effects Corn: 0
[6]
  Effects Cotton: 0
[7]
  Effects Solgum: 0
[8]
  Effects Soybean: 0
[9]
  Effects Sugar beat: 5
[10]
  Effects Wheat: 0
[11]
  Effects Large crabgrass: 3
[12]
  Effects Barnyardgrass: 3
[13]
  Effects Green foxtail: 4
[15]
  Effects Common lambsquarters: 3
[16]
  Effects Livid amaranth: 5
[17]
  Effects Velvetleaf: 3

## CCC(Oc1cccc(C(F)(F)F)c1)c1nc2cc(C(F)(F)F)ccc2o1 (centres unmarked) [Compound 198]
[1]
  Effect Young rice plant: 1
[2]
  Effect Barnyardgrass: 4
[3]
  Effect Bulrush: 1
[4]
  Effect Monochoria: 5
[5]
  Effects Corn: 2
[6]
  Effects Cotton: 1
[7]
  Effects Solgum: 2
[9]
  Effects Sugar beat: 5
[10]
  Effects Wheat: 1
[11]
  Effects Large crabgrass: 5
[12]
  Effects Barnyardgrass: 4
[13]
  Effects Green foxtail: 5
[18]
  Effects Blackgrass: 5
[14]
  Effects Annual bluegrass: 5
[15]
  Effects Common lambsquarters: 4
[16]
  Effects Livid amaranth: 5
[17]
  Effects Velvetleaf: 3
